Results taken from ChEMBL document CHEMBL5325431, “Synthesis of thieno[3,2-e]pyrrolo[1,2-a]pyrimidine derivatives and their precursors containing 2-aminothiophenes fragments as anticancer agents for therapy of pulmonary metastatic melanoma” (Eur J Med Chem, 2023).

What was measured:
[1] = tested on: B16-F10; experiment: Cytotoxicity against mouse B16-F10 cells assessed as cell survival incubated for 24 hrs by alamarblue staining based analysis; assay type: functional; conditions: B16-F10, 24 h
[2] = tested on: B16-F10; experiment: Cytotoxicity against mouse B16-F10 cells assessed as reduction in cell viability at 5.5 uM incubated for 24 hrs by alamarblue staining based assay relative to control; assay type: functional
[3] = tested on: B16-F10; experiment: Cytotoxicity against mouse B16-F10 cells assessed as reduction in cell viability at 0.2 to 1.5 uM incubated for 24 hrs by alamarblue staining based assay relative to control; assay type: functional; conditions: dose 0.2-1.5 µM
[4] = tested on: B16-F10; experiment: Induction of apoptosis in mouse B16-F10 cells assessed as viable cells at 5 uM measured after 48 hrs by Annexin V-FITC/7-AAD staining based flow cytometric analysis relative to control; assay type: functional; conditions: read-out: Activity
[5] = tested on: B16-F10; experiment: Induction of apoptosis in mouse B16-F10 cells assessed as necrotic cells at 5 uM measured after 48 hrs by Annexin V-FITC/7-AAD staining based flow cytometric analysis relative to control; assay type: functional
[6] = tested on: B16-F10; experiment: Induction of apoptosis in mouse B16-F10 cells assessed as viable cells at 10 uM measured after 48 hrs by Annexin V-FITC/7-AAD staining based flow cytometric analysis relative to control; assay type: functional; conditions: read-out: Activity
[7] = tested on: B16-F10; experiment: Induction of apoptosis in mouse B16-F10 cells assessed as early apoptotic cells at 10 uM measured after 48 hrs by Annexin V-FITC/7-AAD staining based flow cytometric analysis relative to control; assay type: functional
[8] = tested on: B16-F10; experiment: Induction of apoptosis in mouse B16-F10 cells assessed as necrotic cells at 15 uM measured after 48 hrs by Annexin V-FITC/7-AAD staining based flow cytometric analysis relative to control; assay type: functional
[9] = tested on: B16-F10; experiment: Induction of apoptosis in mouse B16-F10 cells assessed as late apoptotic cells at 20 uM measured after 48 hrs by Annexin V-FITC/7-AAD staining based flow cytometric analysis relative to control; assay type: functional
[10] = Toxicity in C57BL/6 mouse assessed as effect on AST level at 37 mg/kg, ip measured for 22 days; assay type: organism-based; conditions: in vivo, 528 h, time 22 day
[11] = Toxicity in C57BL/6 mouse implanted with mouse B16-F10 cells assessed as spleen damage at 4.6 to 42 mg/kg, ip by H and E staining based analysis; assay type: organism-based; conditions: in vivo, dose 4.6-42 mg/kg
[12] = tested on: B16-F10; experiment: Cytotoxicity against mouse B16-F10 cells assessed as reduction in cell viability at 8.3 uM incubated for 24 hrs by alamarblue staining based assay relative to control; assay type: functional
[13] = tested on: B16-F10; experiment: Cytotoxicity against mouse B16-F10 cells assessed as reduction in cell viability at 1.5 uM incubated for 24 hrs by alamarblue staining based assay relative to control; assay type: functional
[14] = tested on: B16-F10; experiment: Cytotoxicity against mouse B16-F10 cells assessed as reduction in cell viability at 8.31 uM incubated for 24 hrs by alamarblue staining based assay relative to control; assay type: functional

Row | SMILES | IC50 [1] [µM] | Activity [2] [%] | Activity [3] [%] | viability at 5 µM [4] [%] | Activity [5] [%] | viability at 10 µM [6] [%] | Activity [7] [%] | Activity [8] [%] | Activity [9] [%] | Activity [10] | Activity [11] | Activity [12] [%] | Activity [13] [%] | Activity [14] [%]
1 | COc1ccc(C(=O)/C=C2\C(=O)C(C#N)=C3NC(=O)c4c(sc5c4CCCCC5)N32)cc1 | 6.2 | 20 | 90 | 63.2 | 3.2 | 0.3 | 0.5 | 7.2 | 92 | Non-Toxic | Non-Toxic | – | – | –
2 | CCOC(=O)c1c(N2C(N)=C(C#N)C(=O)/C2=C\C(=O)c2ccc(C)cc2)sc2c1CCCCC2 | 4.8 | 20 | 40 | 35.4 | 32.8 | 1.1 | 1.5 | 3.3 | 96.5 | Non-Toxic | Non-Toxic | 48 | – | –
3 | CCOC(=O)c1c(NC(=C\C(=O)c2ccc(OC)cc2)/C([O-])=C(\C#N)C(N)=O)sc2c1CCCC2.[K+] | 2.41 | – | – | 5.8 | 48.5 | 0.5 | 0.3 | 4.9 | 95.1 | Non-Toxic | Non-Toxic | – | ~80 | 20
